From paper PMC2830944, “Purification and functional characterization of protoplasts and intact vacuoles from grape cells” (BMC Research Notes, 2010)

Key:
[1] = system: T1, V-ATPase (vacuolar ATPase, V-H+-ATPase); test: ACMA fluorescence quenching, initial velocity of proton pumping in intact vacuoles; type: biochemical, Vitis vinifera; details: 100 mM KCl, 2 mM MgCl2, 0.1% BSA, 10 mM MOPS-Tris pH 7.2, 2 μM ACMA; 0.05 to 1.5 mM ATP
T1 construct: gene VHA-A; native multisubunit complex in intact vacuoles isolated from protoplasts of cultured grape berry cells

[2] = system: V-PPase (vacuolar inorganic pyrophosphatase, V-H+-PPase); details: 100 mM KCl, 2 mM MgCl2, 0.1% BSA, 10 mM MOPS-Tris pH 7.2, 2 μM ACMA; 0.1 to 150 μM PPi

SMILES	Km [1] [µM]	Km [2] [µM]
Nc1ncnc2c1ncn2[C@@H]1O[C@H](COP(=O)(O)OP(=O)(O)OP(=O)(O)O)[C@@H](O)[C@H]1O [ATP]	340	
O=P(O)(O)OP(=O)(O)O [PPi]		2
